These results are taken from patent publication US11254668B2, “Pyrazolo[1,5-A]pyrazin-4-yl and related derivatives” (Pfizer Inc., priority 2017, dated 2022).

Some results are limits rather than exact numbers.

In general, IC50 refers to the concentration at which inhibition is half-maximal.

Format in all cases: biochemical
Conditions in all cases: JAK Caliper enzyme assay

The target in one assay is TYK2 (Homo sapiens (Human), UniProt P29597). Kind of assay: JAK Caliper Enzyme Assay at 1 mM ATP, TYK2. An outline of the steps: (§1)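 Inhibition is measured as reduced phosphorylation of a synthetic peptide by the recombinant human kinase domain at 1 mM ATP. Conditions give 20–30% conversion at room temperature before EDTA quench, and on-chip separation of labelled substrate and product yields percent conversion for dose–response plotting.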
Chain of TYK2 (P29597 897-1176): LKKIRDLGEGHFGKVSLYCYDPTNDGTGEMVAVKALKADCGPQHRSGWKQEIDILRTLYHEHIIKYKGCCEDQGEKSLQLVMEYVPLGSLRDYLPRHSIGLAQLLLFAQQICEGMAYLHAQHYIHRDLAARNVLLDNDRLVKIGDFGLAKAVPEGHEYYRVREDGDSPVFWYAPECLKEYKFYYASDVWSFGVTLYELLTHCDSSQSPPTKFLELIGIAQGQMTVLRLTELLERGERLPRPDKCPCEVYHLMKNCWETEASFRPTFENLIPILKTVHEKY

A further assay deals with JAK1 (Homo sapiens (Human), UniProt P23458). Kind of assay: JAK Caliper Enzyme Assay at 1 mM ATP, JAK1. In a few lines:
(§2)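 Recombinant human kinase domains phosphorylated a fluorescent synthetic peptide at room temperature, with enzyme level and time tuned to 20% to 30% conversion; EDTA stop buffer ended reactions. Mobility-shift separation gave percent product from peak heights, normalised to DMSO and positive controls, and IC50s came from concentration–effect curves.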

The next assay has as its target JAK2 (Homo sapiens (Human), UniProt O60674). Kind of assay: JAK Caliper Enzyme Assay at 1 mM ATP, JAK2. In a few lines: as §1
A further assay concerns the target JAK3 (Homo sapiens (Human), UniProt P52333). Kind of assay: JAK Caliper Enzyme Assay at 1 mM ATP, JAK3. In a few lines:
as §2

Chain of JAK2 (O60674 849-1124): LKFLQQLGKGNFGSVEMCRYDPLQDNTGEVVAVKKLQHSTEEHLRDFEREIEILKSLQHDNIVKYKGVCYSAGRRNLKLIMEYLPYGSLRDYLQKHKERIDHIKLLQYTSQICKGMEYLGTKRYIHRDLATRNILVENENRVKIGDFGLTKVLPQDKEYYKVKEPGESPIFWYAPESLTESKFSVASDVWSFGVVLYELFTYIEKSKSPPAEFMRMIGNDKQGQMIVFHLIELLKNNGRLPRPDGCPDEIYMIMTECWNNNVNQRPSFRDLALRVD
Chain of JAK1 (P23458 875-1153): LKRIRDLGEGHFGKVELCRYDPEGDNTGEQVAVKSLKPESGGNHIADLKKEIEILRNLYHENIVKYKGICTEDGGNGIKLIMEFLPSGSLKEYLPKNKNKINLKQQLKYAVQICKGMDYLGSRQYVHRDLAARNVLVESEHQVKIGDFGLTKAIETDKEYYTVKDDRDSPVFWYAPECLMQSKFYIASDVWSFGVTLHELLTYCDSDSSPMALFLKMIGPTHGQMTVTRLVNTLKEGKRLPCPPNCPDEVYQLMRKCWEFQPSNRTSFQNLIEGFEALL
Chain of JAK3 (P52333 822-1111): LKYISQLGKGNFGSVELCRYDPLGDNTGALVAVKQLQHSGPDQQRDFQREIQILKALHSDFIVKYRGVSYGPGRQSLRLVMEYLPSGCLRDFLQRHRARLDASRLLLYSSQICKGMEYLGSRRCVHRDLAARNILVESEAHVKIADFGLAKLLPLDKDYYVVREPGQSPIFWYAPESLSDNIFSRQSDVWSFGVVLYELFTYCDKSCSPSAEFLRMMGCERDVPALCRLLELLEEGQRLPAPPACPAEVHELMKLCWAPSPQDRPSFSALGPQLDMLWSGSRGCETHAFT

As to `Cn1cc(-c2cc(-c3cnn(C4(CC#N)CN(S(C)(=O)=O)C4)n3)c3cccnc3c2)ccc1=O` [Example 412, [3-{4-[7-(1-methyl-6-oxo-1,6-dihydropyridin-3-yl)quinolin-5-yl]-2H-1,2,3-triazol-2-yl}-1-(methylsulfonyl)azetidin-3-yl]acetonitrile], the IC50 is 167 nM on TYK2, 3080 nM at JAK1, 1290 nM on JAK2 and above 10000 nM at JAK3.

Take `CCn1cc(-c2cc(-c3cnn(C4(CC#N)CN(S(C)(=O)=O)C4)n3)c3cccnc3c2)ccc1=O` [Example 413, [3-{4-[7-(1-ethyl-6-oxo-1,6-dihydropyridin-3-yl)quinolin-5-yl]-2H-1,2,3-triazol-2-yl}-1-(methylsulfonyl)azetidin-3-yl]acetonitrile]: the IC50 at TYK2 is 90 nM; at JAK1, 4020 nM; at JAK2, 682 nM; on JAK3 it was above 10000 nM.

`CS(=O)(=O)N1CC(CC#N)(n2ncc(-c3cc(-c4c[nH]c(=O)[nH]c4=O)cc4ncccc34)n2)C1` [Example 414, [3-{4-[7-(2,4-dioxo-1,2,3,4-tetrahydropyrimidin-5-yl)quinolin-5-yl]-2H-1,2,3-triazol-2-yl}-1-(methylsulfonyl)azetidin-3-yl]acetonitrile]: the IC50 at TYK2 is 276 nM; at JAK1 it was above 10000 nM; on JAK2, 6170 nM; on JAK3, above 10000 nM.

In the case of `N#CC[C@]1(n2ncc(-c3cc(-c4cnc5[nH]ccc5n4)cc4ncccc34)n2)C[C@@H](C#N)C1` [Example 416, cis-3-(cyanomethyl)-3-{4-[7-(5H-pyrrolo[2,3-b]pyrazin-2-yl)quinolin-5-yl]-2H-1,2,3-triazol-2-yl}cyclobutanecarbonitrile], the IC50 at TYK2 was 696 nM; on JAK1 it was 3200 nM; on JAK2 it was 2300 nM; on JAK3, above 10000 nM.

With `N#CC[C@]1(n2ncc(-c3cc(-c4cnc5ncccn45)cc4ncccc34)n2)C[C@@H](C#N)C1` [Example 417, cis-3-(cyanomethyl)-3-{4-[7-(imidazo[1,2-a]pyrimidin-3-yl)quinolin-5-yl]-2H-1,2,3-triazol-2-yl}cyclobutanecarbonitrile], the IC50 was 110 nM at TYK2, 7470 nM on JAK1, 291 nM at JAK2 and above 10000 nM on JAK3.

On to `N#CC[C@]1(n2ncc(-c3cc(-c4cnc5ncccn45)cc4ncccc34)n2)C[C@H](C#N)C1` [Example 418, trans-3-(cyanomethyl)-3-{4-[7-(imidazo[1,2-a]pyrimidin-3-yl)quinolin-5-yl]-2H-1,2,3-triazol-2-yl}cyclobutanecarbonitrile], for which the IC50 on TYK2 is 1540 nM; at JAK1 it was above 10000 nM; on JAK2, 8070 nM; on JAK3 it was above 10000 nM.

As to `N#CC[C@]1(n2ncc(-c3cc(-c4cnn5cccnc45)cc4ncccc34)n2)C[C@@H](C#N)C1` [Example 419, cis-3-(cyanomethyl)-3-{4-[7-(pyrazolo[1,5-a]pyrimidin-3-yl)quinolin-5-yl]-2H-1,2,3-triazol-2-yl}cyclobutanecarbonitrile], the IC50 at TYK2 was 105 nM; on JAK1, 739 nM; at JAK2 it was 200 nM; at JAK3 it was above 10000 nM.

Turning to `N#CC[C@]1(n2ncc(-c3cc(-c4cnn5cccnc45)cc4ncccc34)n2)C[C@H](C#N)C1` [Example 420, trans-3-(cyanomethyl)-3-{4-[7-(pyrazolo[1,5-a]pyrimidin-3-yl)quinolin-5-yl]-2H-1,2,3-triazol-2-yl}cyclobutanecarbonitrile], the IC50 is 909 nM on TYK2, above 10000 nM on JAK1, 1700 nM at JAK2 and above 10000 nM at JAK3.

Regarding `N#CCC1(n2ncc(-c3cc(-c4cnc5cccnn45)cc4ncccc34)n2)CC(C#N)C1` (stereo not drawn) [Example 421, cis-3-(cyanomethyl)-3-{4-[7-(imidazo[1,2-b]pyridazin-3-yl)quinolin-5-yl]-2H-1,2,3-triazol-2-yl}cyclobutanecarbonitrile], the IC50 is 113 nM at TYK2, 1560 nM at JAK1, 353 nM at JAK2 and above 10000 nM on JAK3.

Consider `N#CC[C@]1(n2ncc(-c3cc(-c4cnc5c(N)nccn45)cc4ncccc34)n2)C[C@@H](C#N)C1` [Example 422, cis-3-{4-[7-(8-aminoimidazo[1,2-a]pyrazin-3-yl)quinolin-5-yl]-2H-1,2,3-triazol-2-yl}-3-(cyanomethyl)cyclobutanecarbonitrile], for which the 50% inhibitory concentration (IC50) at TYK2 was 292 nM; at JAK1, 5380 nM; at JAK2, 1460 nM; on JAK3, above 10000 nM.

In the case of `N#CC[C@]1(n2ncc(-c3cc(-c4cn5ccnc5c(N)n4)cc4ncccc34)n2)C[C@@H](C#N)C1` [Example 423, cis-3-{4-[7-(8-aminoimidazo[1,2-a]pyrazin-6-yl)quinolin-5-yl]-2H-1,2,3-triazol-2-yl}-3-(cyanomethyl)cyclobutanecarbonitrile], the IC50 on TYK2 is 76 nM; on JAK1, 2250 nM; at JAK2, 183 nM; at JAK3 it was above 10000 nM.

For the molecule `Cc1nc2ccc(-c3cc(-c4cnn([C@]5(CC#N)C[C@H](C#N)C5)n4)c4cccnc4c3)nc2[nH]1` [Example 424, cis-3-(cyanomethyl)-3-{4-[7-(2-methyl-3H-imidazo[4,5-b]pyridin-5-yl)quinolin-5-yl]-2H-1,2,3-triazol-2-yl}cyclobutanecarbonitrile], the IC50 was 23 nM at TYK2, 728 nM at JAK1, 82 nM on JAK2 and 9360 nM at JAK3.

Regarding `CN1C(=O)COc2ccc(-c3cc(-c4cnn([C@]5(CC#N)C[C@H](C#N)C5)n4)c4cccnc4c3)nc21` [Example 425, cis-3-(cyanomethyl)-3-{4-[7-(4-methyl-3-oxo-3,4-dihydro-2H-pyrido[3,2-b][1,4]oxazin-6-yl)quinolin-5-yl]-2H-1,2,3-triazol-2-yl}cyclobutanecarbonitrile], the IC50 on TYK2 is 12 nM; at JAK1, 608 nM; at JAK2, 29 nM; on JAK3, above 10000 nM.

As for `CN1C(=O)COc2ccc(-c3cc(-c4cnn([C@]5(CC#N)C[C@@H](C#N)C5)n4)c4cccnc4c3)nc21` [Example 426, trans-3-(cyanomethyl)-3-{4-[7-(4-methyl-3-oxo-3,4-dihydro-2H-pyrido[3,2-b][1,4]oxazin-6-yl)quinolin-5-yl]-2H-1,2,3-triazol-2-yl}cyclobutanecarbonitrile], the IC50 at TYK2 was 24 nM; on JAK1, 1000 nM; at JAK2 it was 50 nM; at JAK3, above 10000 nM.

In the case of `CS(=O)(=O)N1CC(CC#N)(n2ncc(-c3cc(-c4cccc(CN)c4)cc4ncccc34)n2)C1` [Example 427, [3-(4-{7-[3-(aminomethyl)phenyl]quinolin-5-yl}-2H-1,2,3-triazol-2-yl)-1-(methylsulfonyl)azetidin-3-yl]acetonitrile], the IC50 is 709 nM on TYK2, above 10000 nM at JAK1, 3150 nM on JAK2 and above 10000 nM on JAK3.

As to `CS(=O)(=O)N1CC(CC#N)(n2ncc(-c3cc(-c4ccc(CN)cc4)cc4ncccc34)n2)C1` [Example 428, [3-(4-{7-[4-(aminomethyl)phenyl]quinolin-5-yl}-2H-1,2,3-triazol-2-yl)-1-(methylsulfonyl)azetidin-3-yl]acetonitrile], the IC50 was 128 nM on TYK2, 9320 nM at JAK1, 924 nM at JAK2 and above 10000 nM at JAK3.

For `CS(=O)(=O)N1CC(CC#N)(n2ncc(-c3cc(-c4cccc(CO)c4)cc4ncccc34)n2)C1` [Example 429, [3-(4-{7-[3-(hydroxymethyl)phenyl]quinolin-5-yl}-2H-1,2,3-triazol-2-yl)-1-(methylsulfonyl)azetidin-3-yl]acetonitrile], the IC50 at TYK2 was 112 nM; at JAK1 it was 4000 nM; on JAK2 it was 1120 nM; at JAK3 it was above 10000 nM.

For `CS(=O)(=O)N1CC(CC#N)(n2ncc(-c3cc(-c4cccc(C(N)=O)c4)cc4ncccc34)n2)C1` [Example 430, 3-(5-{2-[3-(cyanomethyl)-1-(methylsulfonyl)azetidin-3-yl]-2H-1,2,3-triazol-4-yl}quinolin-7-yl)benzamide], the IC50 was 93 nM on TYK2, 3140 nM at JAK1, 909 nM at JAK2 and above 10000 nM on JAK3.

Regarding `N#CC[C@]1(n2ncc(-c3cc(-c4ccc(C(N)=O)cc4)cc4ncccc34)n2)C[C@H](C#N)C1` [Example 433, 4-(5-{2-[cis-3-cyano-1-(cyanomethyl)cyclobutyl]-2H-1,2,3-triazol-4-yl}quinolin-7-yl)benzamide], the IC50 at TYK2 worked out at 20 nM; at JAK1 it was 352 nM; at JAK2 it was 116 nM; on JAK3, 6700 nM.

On to `N#CCC1(n2ncc(-c3cc(-c4ccc(C(N)=O)cc4)cc4ncccc34)n2)CC(C#N)C1` (stereo not drawn) [Example 434, 4-(5-{2-[trans-3-cyano-1-(cyanomethyl)cyclobutyl]-2H-1,2,3-triazol-4-yl}quinolin-7-yl)benzamide], for which the IC50 on TYK2 was 99 nM; at JAK1, 2520 nM; on JAK2, 748 nM; on JAK3 it was above 10000 nM.

As to `N#CC[C@]1(n2ncc(-c3cc(-c4ccc(C(=O)O)cc4)cc4ncccc34)n2)C[C@H](C#N)C1` [Example 435, 4-(5-{2-[cis-3-cyano-1-(cyanomethyl)cyclobutyl]-2H-1,2,3-triazol-4-yl}quinolin-7-yl)benzoic acid], the IC50 at TYK2 was 17 nM; at JAK1, 208 nM; on JAK2 it was 179 nM; at JAK3, above 10000 nM.
